Assay results from ChEMBL document CHEMBL1177792, “Pre-clinical characterization of aryloxypyridine amides as histamine H3 receptor antagonists: identification of candidates for clinical development” (Bioorg Med Chem Lett, 2010).
Calls of active or inactive are those of the source. The calls are words filed in the database; no cut-off is given here.

Tests used:
[1] = Fraction unbound in rat plasma; format: ADME, cell-free
[2] = Clearance in Beagle dog at 1 mg/kg, iv and 5 mg/kg, po; format: ADME, organism-based, Canis lupus familiaris; settings: in vivo
Rattus norvegicus [3] = test: Increase of histamine release in rat frontal cortex at 0.3 to 3 mg/kg, sc measured up to 300 mins; format: functional, organism-based
[4] = Clearance in BALB/c mouse at 1 mg/kg, iv and 10 mg/kg, po; format: ADME, organism-based; settings: in vivo
Cytochrome P450 3A4 = Cytochrome P450 3A4 (Homo sapiens, UniProt P08684); test: Inhibition of CYP3A4 at 10 uM; format: ADME
[5] = Half life in Beagle dog at 1 mg/kg, iv and 5 mg/kg, po; format: ADME, organism-based, Canis lupus familiaris; settings: in vivo
[6] = Clearance in Sprague-Dawley rat at 1 mg/kg, iv and 10 mg/kg, po; format: ADME, organism-based; settings: in vivo
Cytochrome P450 2D6 = Cytochrome P450 2D6 (Homo sapiens, UniProt P10635); test: Inhibition of CYP2D6 at 10 uM; format: ADME
Brain = test: Drug level in rat brain at 3 mg/kg, sc; format: ADME, organism-based; design: dose 3 mg/kg, route subcutaneous; settings: in vivo, read-out: Drug uptake
[7] = Plasma concentration in Wistar rat at 10 mg/kg, po after 1 hr; format: ADME, organism-based; design: dose 10 mg/kg, route oral; settings: read-out: Drug uptake
[8] = target: T1, Voltage-gated inwardly rectifying potassium channel KCNH2 (Homo sapiens, UniProt Q12809); test: Displacement of radiolabeled astemizole from human ERG
Plasma = test: Plasma concentration in rat at 3 mg/kg, sc; format: ADME, organism-based; design: dose 3 mg/kg, route subcutaneous; settings: in vivo, read-out: Drug uptake
[9] = Metabolic stability in rat liver microsomes assessed as compound remaining after 30 mins; format: ADME, Microsome; settings: read-out: Stability
Rattus norvegicus [10] = test: Increase of wake duration in rat at 10 mg/kg, sc; format: functional, organism-based; design: dose 10 mg/kg
hERG (KCNH2) = hERG (KCNH2) (Homo sapiens, UniProt Q12809); test: Displacement of radiolabeled astemizole from human ERG at 10 uM; settings: probe radiolabeled astemizole
[11] = Half life in Sprague-Dawley rat at 1 mg/kg, iv and 10 mg/kg, po; format: ADME, organism-based; settings: in vivo
Rattus norvegicus [12] = test: Ex vivo receptor occupancy of histamine H3 receptor in Wistar rat brain at 10 mg/kg, po after 1 hr by autoradiography; format: functional
[13] = Permeability from apical to basolateral side of human Caco-2 cells; format: ADME, cell-based; settings: read-out: permeability
[14] = Bioavailability in Beagle dog at 1 mg/kg, iv and 5 mg/kg, po; format: ADME, organism-based, Canis lupus familiaris; settings: in vivo
[15] = Solubility in simulated gastric fluid; format: physicochemical
Cytochrome P450 2C9 = Cytochrome P450 2C9 (Homo sapiens, UniProt P11712); test: Inhibition of CYP2C9 at 10 uM; format: ADME
[16] = Plasma concentration in Wistar rat at 3 mg/kg, po after 30 mins; format: ADME, organism-based; design: dose 3 mg/kg, route oral; settings: read-out: Drug uptake
[17] = Metabolic stability in human liver microsomes assessed as compound remaining after 30 mins; format: ADME, Microsome; settings: read-out: Stability
[18] = target: T1, Voltage-gated inwardly rectifying potassium channel KCNH2; test: Inhibition of human ERG by patch clamp technique
[19] = Bioavailability in BALB/c mouse at 1 mg/kg, iv and 10 mg/kg, po; format: ADME, organism-based; settings: in vivo
[20] = Volume of distribution at steady state in Beagle dog at 1 mg/kg, iv and 5 mg/kg, po; format: ADME, organism-based, Canis lupus familiaris; settings: in vivo, read-out: Vdss
[21] = Bioavailability in Sprague-Dawley rat at 1 mg/kg, iv and 10 mg/kg, po; format: ADME, organism-based; settings: in vivo
Rattus norvegicus [22] = test: Increase of wake duration in rat at 10 mg/kg, s.c.
[23] = Volume of distribution at steady state in Sprague-Dawley rat at 1 mg/kg, iv and 10 mg/kg, po; format: ADME, organism-based; settings: in vivo, read-out: Vdss
[24] = Half life in BALB/c mouse at 1 mg/kg, iv and 10 mg/kg, po; format: ADME, organism-based; settings: in vivo
Rattus norvegicus [25] = test: Ex vivo receptor occupancy of histamine H3 receptor in Wistar rat brain at 3 mg/kg, po after 30 mins by [3H]R-alpha-methylhistamine bingind autoradiography; format: functional
[26] = Solubility in water; format: physicochemical
[27] = Drug level in Wistar rat brain at 10 mg/kg, po after 1 hr; format: ADME, organism-based; design: dose 10 mg/kg, route oral; settings: read-out: Drug uptake
[28] = Volume of distribution at steady state in BALB/c mouse at 1 mg/kg, iv and 10 mg/kg, po; format: ADME, organism-based; settings: in vivo, read-out: Vdss
[29] = Permeability from basolateral to apical side of human Caco-2 cells; format: ADME, cell-based; settings: read-out: permeability

T1 sequence (Q12809 whole entry): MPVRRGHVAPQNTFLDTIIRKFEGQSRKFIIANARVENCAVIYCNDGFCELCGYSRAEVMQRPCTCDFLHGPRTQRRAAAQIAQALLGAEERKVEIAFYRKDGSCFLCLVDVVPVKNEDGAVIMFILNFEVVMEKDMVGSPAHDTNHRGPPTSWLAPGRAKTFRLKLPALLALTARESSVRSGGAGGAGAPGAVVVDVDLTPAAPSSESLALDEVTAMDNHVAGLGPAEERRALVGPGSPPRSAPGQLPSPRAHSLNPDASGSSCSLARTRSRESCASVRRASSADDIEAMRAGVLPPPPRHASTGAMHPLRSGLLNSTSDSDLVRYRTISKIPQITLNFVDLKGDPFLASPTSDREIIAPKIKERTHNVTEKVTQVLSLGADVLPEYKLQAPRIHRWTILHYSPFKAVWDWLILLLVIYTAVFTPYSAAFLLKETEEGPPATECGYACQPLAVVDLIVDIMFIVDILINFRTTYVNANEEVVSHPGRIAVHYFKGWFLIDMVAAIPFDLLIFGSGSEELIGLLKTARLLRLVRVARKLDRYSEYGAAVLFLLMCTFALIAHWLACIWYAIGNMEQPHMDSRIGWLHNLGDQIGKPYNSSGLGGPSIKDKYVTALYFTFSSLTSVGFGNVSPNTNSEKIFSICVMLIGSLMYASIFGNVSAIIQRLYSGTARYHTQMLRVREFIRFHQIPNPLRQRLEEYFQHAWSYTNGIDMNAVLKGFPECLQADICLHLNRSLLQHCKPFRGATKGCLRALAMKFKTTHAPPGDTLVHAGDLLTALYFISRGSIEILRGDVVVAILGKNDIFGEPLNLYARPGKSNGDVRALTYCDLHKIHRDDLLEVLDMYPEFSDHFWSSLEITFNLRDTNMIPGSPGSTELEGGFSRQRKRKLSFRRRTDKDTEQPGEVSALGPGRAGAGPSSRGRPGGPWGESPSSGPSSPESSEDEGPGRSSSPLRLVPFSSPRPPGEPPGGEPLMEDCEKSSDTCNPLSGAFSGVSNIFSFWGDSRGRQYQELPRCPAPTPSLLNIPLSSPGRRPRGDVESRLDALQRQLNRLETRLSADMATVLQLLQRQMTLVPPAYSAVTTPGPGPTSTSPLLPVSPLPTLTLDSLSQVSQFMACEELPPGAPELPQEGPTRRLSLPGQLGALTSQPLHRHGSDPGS
Cytochrome P450 3A4, sequence (P08684 whole entry): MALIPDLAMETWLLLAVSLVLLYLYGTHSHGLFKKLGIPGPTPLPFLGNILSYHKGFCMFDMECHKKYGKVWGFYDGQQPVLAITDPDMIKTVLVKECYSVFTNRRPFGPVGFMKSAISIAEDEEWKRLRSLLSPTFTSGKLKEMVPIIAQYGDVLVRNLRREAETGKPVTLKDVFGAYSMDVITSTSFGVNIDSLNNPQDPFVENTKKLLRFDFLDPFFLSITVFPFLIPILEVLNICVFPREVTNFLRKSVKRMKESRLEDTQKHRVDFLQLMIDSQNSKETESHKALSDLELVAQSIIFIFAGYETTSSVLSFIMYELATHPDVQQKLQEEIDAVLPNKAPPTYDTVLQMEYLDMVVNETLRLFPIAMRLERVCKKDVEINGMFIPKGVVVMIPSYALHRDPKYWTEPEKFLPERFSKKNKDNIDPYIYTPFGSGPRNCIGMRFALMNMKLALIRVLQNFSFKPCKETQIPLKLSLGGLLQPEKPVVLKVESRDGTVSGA
Cytochrome P450 2C9, sequence (P11712 whole entry): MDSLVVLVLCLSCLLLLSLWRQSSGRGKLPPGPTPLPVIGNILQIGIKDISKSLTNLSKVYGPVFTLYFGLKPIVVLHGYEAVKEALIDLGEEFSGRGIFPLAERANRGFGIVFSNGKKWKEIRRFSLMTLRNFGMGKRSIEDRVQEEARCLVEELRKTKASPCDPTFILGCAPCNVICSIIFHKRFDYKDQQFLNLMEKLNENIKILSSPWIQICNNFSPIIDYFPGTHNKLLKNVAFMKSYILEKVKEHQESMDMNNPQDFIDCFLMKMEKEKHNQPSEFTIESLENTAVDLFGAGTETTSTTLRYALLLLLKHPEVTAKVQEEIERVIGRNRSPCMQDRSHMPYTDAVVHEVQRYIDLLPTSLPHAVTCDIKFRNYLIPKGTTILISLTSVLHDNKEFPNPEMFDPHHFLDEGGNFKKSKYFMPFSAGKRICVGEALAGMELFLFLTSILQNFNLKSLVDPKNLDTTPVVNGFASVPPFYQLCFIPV
hERG (KCNH2), sequence (Q12809 whole entry): as the sequence (Q12809 whole entry) above
Cytochrome P450 2D6, sequence (P10635 whole entry): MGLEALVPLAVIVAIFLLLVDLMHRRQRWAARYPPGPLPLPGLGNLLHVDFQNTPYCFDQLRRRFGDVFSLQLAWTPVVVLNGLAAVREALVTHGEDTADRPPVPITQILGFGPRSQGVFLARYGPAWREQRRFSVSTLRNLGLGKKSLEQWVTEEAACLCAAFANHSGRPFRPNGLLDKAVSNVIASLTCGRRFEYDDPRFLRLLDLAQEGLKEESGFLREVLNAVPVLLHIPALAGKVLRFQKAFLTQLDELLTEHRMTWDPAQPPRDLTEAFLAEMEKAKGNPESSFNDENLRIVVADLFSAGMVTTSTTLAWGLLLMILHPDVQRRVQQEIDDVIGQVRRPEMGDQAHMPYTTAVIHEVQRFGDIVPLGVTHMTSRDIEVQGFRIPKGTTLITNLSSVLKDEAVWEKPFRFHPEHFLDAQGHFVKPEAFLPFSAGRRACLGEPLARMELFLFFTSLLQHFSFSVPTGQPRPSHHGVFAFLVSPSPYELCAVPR

O=C(c1ccc(Oc2ccc(F)cc2)nc1)N1CCCN(C2CCC2)CC1 [JNJ-39220675]
fraction unbound [1]: 0.15
clearance [2]: 35 mL/min/kg
Activity (Rattus norvegicus [3]): Active
clearance [4]: 94 mL/min/kg
Activity (Cytochrome P450 3A4): Not Active
half-life [5]: 2.6 h
clearance [6]: 49 mL/min/kg
Activity (Cytochrome P450 2D6): Not Active
concentration (Brain): 956 nM
concentration at 1 h [7]: 1480 nM
IC50 [8]: > 10 µM
concentration (Plasma): 257 nM
remaining at 0.5 h [9]: 63%
Activity (Rattus norvegicus [10]): Active
inhibition at 10 µM (hERG (KCNH2)): 0%
half-life [11]: 1.2 h
Activity (Rattus norvegicus [12]): 94%
Papp A→B [13]: 78 ×10⁻⁶ cm/s
bioavailability [14]: 28%
solubility [15]: > 5000 µg/mL
Activity (Cytochrome P450 2C9): Not Active
concentration at 0.5 h [16]: 150 ng/mL
remaining at 0.5 h [17]: 87%
IC50 [18]: 3.5 µM
bioavailability [19]: 28%
Vd [20]: 7.2 L/kg
bioavailability [21]: 50%
Activity (Rattus norvegicus [22]): Active
Vd [23]: 3.5 L/kg
half-life [24]: 1.1 h
Activity (Rattus norvegicus [25]): 90%
solubility [26]: > 5000 µg/mL
concentration at 1 h [27]: 2650 nM
Vd [28]: 8.7 L/kg
Papp B→A [29]: 36 ×10⁻⁶ cm/s
